Source: publication PMC7666069 (Journal of medicinal chemistry, 2020)
Where two headings read alike, the source gives them in different places.

Legend:
CB1 receptor = settings: cited from earlier work
[1] = cited from earlier work; for apparent plasma clearance (CL'): oromucosal spray
[2] = system: malate dehydrogenase (MDH); assay: MDH orthogonal aggregation counter screen; assay type: biochemical; settings: 33 or 100 μM; presence or absence of 0.01% Triton X-100
D1 = D1 (Homo sapiens, UniProt P21728); assay: PDSP receptor profiling; assay type: binding
D1, sequence (P21728 whole entry): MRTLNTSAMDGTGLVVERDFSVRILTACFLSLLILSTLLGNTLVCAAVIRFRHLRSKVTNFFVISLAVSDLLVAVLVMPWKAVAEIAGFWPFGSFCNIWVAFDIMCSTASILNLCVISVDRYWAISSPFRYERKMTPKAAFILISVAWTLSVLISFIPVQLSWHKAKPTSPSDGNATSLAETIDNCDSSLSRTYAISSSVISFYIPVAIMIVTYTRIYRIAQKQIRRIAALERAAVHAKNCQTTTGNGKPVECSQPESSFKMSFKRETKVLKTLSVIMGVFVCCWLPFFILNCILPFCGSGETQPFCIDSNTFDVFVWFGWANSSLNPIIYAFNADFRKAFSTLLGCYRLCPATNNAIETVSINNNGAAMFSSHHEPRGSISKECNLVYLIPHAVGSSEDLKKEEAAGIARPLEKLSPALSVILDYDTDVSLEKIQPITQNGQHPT

DOR = DOR (Homo sapiens, UniProt P41143); assay: PDSP receptor profiling; assay type: binding
DOR, sequence (P41143 whole entry): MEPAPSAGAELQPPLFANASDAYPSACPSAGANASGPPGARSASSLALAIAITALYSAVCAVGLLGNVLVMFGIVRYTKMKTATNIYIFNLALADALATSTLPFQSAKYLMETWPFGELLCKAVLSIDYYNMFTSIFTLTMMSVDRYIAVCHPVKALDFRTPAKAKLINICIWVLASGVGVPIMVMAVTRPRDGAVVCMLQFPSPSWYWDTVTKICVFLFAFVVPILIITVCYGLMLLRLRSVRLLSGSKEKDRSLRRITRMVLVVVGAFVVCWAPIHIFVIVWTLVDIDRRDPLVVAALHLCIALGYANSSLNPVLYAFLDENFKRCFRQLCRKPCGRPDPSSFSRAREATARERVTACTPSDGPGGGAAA

[3] = Colloidal aggregate detection by dynamic light scattering; assay type: physicochemical; settings: critical aggregation concentration can vary several-fold with conditions
[4] = patients with schizophrenia, 800 mg/day, not placebo-controlled; cited from earlier work
[5] = room temperature; air oxidation to cannabidiol hydroxyquinone; cited from earlier work
ɑ2C = molecular target: T1, ɑ2C (Homo sapiens, UniProt P18825); assay: PDSP receptor profiling; assay type: binding
T1 sequence (P18825 1-462): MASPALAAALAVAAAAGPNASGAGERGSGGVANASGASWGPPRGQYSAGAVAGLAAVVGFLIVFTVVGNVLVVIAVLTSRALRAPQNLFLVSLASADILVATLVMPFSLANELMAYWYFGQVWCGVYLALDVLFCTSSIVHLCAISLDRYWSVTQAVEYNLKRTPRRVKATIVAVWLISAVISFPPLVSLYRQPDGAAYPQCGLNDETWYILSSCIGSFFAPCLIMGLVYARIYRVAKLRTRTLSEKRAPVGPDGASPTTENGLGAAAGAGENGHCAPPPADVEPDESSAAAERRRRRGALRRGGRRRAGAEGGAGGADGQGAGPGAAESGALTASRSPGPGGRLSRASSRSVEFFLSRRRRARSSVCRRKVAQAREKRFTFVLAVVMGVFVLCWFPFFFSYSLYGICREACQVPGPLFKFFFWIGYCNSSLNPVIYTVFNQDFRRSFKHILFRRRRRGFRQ

5-HT1A receptor = settings: displacement of agonist [3H]-8-OH-DPAT; cited from earlier work
H3 = H3 (Homo sapiens, UniProt Q9Y5N1); assay: PDSP receptor profiling; assay type: binding
H3, sequence (Q9Y5N1 whole entry): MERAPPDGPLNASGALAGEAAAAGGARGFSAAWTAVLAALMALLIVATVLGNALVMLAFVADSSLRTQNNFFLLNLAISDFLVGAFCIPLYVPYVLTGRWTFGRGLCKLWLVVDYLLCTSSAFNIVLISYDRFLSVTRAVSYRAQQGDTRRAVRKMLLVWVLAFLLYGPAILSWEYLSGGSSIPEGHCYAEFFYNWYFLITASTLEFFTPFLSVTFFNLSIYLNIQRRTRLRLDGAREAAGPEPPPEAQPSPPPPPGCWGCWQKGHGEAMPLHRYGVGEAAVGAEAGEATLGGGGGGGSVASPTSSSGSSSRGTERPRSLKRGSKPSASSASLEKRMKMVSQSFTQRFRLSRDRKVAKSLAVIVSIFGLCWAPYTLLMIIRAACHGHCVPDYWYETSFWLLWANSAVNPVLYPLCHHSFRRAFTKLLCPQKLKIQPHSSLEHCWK

KOR = KOR (Homo sapiens, UniProt P41145); assay: PDSP receptor profiling; assay type: binding
KOR, sequence (P41145 whole entry): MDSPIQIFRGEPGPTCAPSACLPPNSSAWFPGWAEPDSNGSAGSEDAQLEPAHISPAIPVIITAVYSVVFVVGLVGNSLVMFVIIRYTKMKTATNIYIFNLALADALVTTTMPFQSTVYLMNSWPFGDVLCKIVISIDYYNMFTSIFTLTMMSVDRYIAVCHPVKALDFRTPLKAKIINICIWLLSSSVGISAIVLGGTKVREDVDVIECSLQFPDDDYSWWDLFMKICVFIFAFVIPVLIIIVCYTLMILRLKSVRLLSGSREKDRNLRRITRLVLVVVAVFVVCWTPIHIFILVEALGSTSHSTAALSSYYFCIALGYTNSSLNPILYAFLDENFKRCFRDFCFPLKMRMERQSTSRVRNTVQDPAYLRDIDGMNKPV

ɑ2b = molecular target: T2, ɑ2b (Homo sapiens, UniProt P18089); assay: PDSP receptor profiling; assay type: binding
T2 sequence (P18089 1-450): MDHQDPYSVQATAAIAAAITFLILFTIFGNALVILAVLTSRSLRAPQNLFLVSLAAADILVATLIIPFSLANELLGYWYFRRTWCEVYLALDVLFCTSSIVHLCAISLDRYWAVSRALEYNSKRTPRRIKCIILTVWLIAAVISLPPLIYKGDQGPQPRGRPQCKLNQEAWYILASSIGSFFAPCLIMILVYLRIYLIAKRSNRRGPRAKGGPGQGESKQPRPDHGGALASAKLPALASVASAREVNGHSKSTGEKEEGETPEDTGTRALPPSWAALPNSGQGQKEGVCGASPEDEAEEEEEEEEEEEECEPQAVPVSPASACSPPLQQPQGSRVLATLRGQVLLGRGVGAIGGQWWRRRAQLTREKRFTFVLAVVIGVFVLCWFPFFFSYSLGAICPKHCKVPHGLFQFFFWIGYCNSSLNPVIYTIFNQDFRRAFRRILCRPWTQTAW

[6] = cited from earlier work
AmpC β-lactamase = AmpC β-lactamase (Escherichia coli, UniProt P00811); assay: AmpC colloidal aggregation counter screen; assay type: biochemical; settings: low micromolar concentrations; with/without detergent
AmpC β-lactamase, sequence (P00811 20-377): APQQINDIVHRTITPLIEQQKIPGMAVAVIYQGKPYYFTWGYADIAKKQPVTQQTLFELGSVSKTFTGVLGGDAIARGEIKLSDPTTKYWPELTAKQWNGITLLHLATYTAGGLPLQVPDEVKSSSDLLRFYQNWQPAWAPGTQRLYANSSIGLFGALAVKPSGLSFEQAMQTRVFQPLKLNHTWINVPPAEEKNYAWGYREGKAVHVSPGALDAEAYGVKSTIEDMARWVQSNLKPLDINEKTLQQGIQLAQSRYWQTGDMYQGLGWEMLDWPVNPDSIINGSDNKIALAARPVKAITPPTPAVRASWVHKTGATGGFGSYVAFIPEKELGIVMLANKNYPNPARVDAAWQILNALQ

mice = settings: oral single 246–2460 mg/kg or 61.5–615 mg/kg for 10 days; cited from earlier work
MOR = MOR (Homo sapiens, UniProt P35372); assay: PDSP receptor profiling; assay type: binding
MOR, sequence (P35372 whole entry): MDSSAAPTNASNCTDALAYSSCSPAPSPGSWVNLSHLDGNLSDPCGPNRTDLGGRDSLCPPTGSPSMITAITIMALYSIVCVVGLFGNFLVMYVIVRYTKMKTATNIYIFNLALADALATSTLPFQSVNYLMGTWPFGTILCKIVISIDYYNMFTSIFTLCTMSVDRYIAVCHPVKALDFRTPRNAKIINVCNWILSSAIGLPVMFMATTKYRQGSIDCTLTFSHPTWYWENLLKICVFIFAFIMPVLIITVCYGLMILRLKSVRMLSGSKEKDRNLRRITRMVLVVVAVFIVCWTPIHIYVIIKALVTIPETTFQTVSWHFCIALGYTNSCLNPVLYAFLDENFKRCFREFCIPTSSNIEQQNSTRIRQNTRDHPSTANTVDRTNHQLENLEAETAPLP

5-HT2C = molecular target: T3, 5-HT2C (Homo sapiens, UniProt P28335); assay: PDSP receptor profiling; assay type: binding
T3 sequence (P28335 33-458): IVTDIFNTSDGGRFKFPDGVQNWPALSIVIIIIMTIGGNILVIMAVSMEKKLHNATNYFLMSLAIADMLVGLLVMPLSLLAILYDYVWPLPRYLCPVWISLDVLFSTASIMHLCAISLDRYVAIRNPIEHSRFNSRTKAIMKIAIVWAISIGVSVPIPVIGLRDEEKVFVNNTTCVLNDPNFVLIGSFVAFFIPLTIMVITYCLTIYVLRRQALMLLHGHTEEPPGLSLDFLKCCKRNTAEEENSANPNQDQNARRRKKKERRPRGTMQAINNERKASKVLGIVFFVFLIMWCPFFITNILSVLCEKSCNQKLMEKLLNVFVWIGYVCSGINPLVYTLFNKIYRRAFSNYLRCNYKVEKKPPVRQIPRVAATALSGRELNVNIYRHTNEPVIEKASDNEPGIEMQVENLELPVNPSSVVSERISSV

σ2 = molecular target: T4, σ2 (Rattus norvegicus, UniProt Q5U3Y7); assay: PDSP receptor profiling; assay type: binding
T4 sequence (Q5U3Y7 1-176): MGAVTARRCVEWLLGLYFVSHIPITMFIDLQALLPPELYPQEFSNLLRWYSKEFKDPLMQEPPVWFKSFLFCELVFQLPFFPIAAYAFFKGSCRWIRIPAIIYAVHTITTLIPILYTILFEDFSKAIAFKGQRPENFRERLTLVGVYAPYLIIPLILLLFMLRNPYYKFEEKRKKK

ion channels = settings: membrane pressure and direct binding; cited from earlier work
CB2 receptor = settings: cited from earlier work

## CCCCCc1cc(O)c([C@@H]2C=C(C)CC[C@H]2C(C)C)c(O)c1 [H2-CBD]
CB1 receptor
  affinity for the CB1 receptor: moderate affinity

## C=C(C)[C@@H]1CCC(C)=C[C@H]1c1c(O)cc(CCCCC)cc1O [CBD, Cannabidiol]
[1]; humans, single dose of an oral preparation containing 100 mg of CBD
  plasma concentration: 36 ng/mL and approximately 100 nM
[1]; oromucosal spray formulations
  volume of distribution: 26,000–31,000 L
[1]; doses 5–20 mg
  apparent plasma clearance (CL'): 2,500–4,700 L/h
[1]; fed state
  apparent plasma clearance (CL'): 533 L/h
[2]
  inhibition of malate dehydrogenase (MDH): detergent-sensitive inhibition
D1
  inhibition at 10 µM: > 50%
DOR
  inhibition at 10 µM: > 50%
[3]
  concentration at which detectable colloidal aggregates form (DLS): approximately 12.5 μM
[4]
  change in PANSS scores: clinically-significant reduction
[5]
  chemical stability: chemically unstable
ɑ2C
  inhibition at 10 µM: > 50%
5-HT1A receptor
  EC50: 8 to 16 µM
H3
  inhibition at 10 µM: > 50%
KOR
  inhibition at 10 µM: > 50%
ɑ2b
  inhibition at 10 µM: > 50%
[6]
  concentration at which CBD promotes DDI and potentiates the action of many drugs: 5 to 10 µM
AmpC β-lactamase
  inhibition of AmpC β-lactamase: detergent-sensitive inhibition
mice
  number of genes altered in gene expression arrays: > 50 genes
MOR
  inhibition at 10 µM: > 50%
5-HT2C
  inhibition at 10 µM: > 50%
σ2
  Ki: > 1 µM
  inhibition at 10 µM: > 50%
Ion channels
  concentration at which CBD promiscuously affects ion channels: 0.1 to 5 µM

## C=C(C)[C@H]1CCC(C)=C[C@@H]1c1c(O)cc(CCCCC)cc1O [(+)-CBD]
CB2 receptor
  CB2 receptor affinity: below 1 μM
CB1 receptor
  CB1 receptor affinity: below 1 μM
